From US12281098B2, “Five-membered-fused six-membered compound, preparation method, pharmaceutical composition and use” (HANGZHOU POLYMED BIOPHARMACEUTICALS, INC., priority 2021, dated 2025)
Read-outs that look alike come from different tables or passages of the source.

What was measured:
THP-1 cells = test: LPS-stimulated cytokine (TNFα) release in THP-1; assay type: cell-based, Human; details: LPS 100 ng/mL, 5 hours, TNF-α ELISA, read-out: Inhibition IC50 (nM) of cytokines (TNFα) against LPS-stimulated inflammatory responses in THP-1 cells
Description: THP-1 cells were cultured in suspension in RPMI 1640 complete medium (containing 10% serum, 1% penicillin-streptomycin, and 55 μM β-mercaptoethanol). THP-1 cells were collected, centrifuged at 350×g at room temperature to discard the supernatant, and resuspended in RPMI 1640 complete medium to a concentration of 2×10^6 cells per mL. THP-1 cells were spread into a 96-well plate at a concentration of 2×10^5 cells per well, and different concentrations of the compound to be tested were added thereto. The plate was incubated in a 37° C. cell culture incubator with 5% CO2 for 60 minutes. 50 μL of LPS at a final concentration of 100 ng/mL was added to a 96-well plate, and incubated in a 37° C. cell culture incubator for 5 hours. The cell culture plate was then taken out from the incubator, and centrifuged at 350×g at low temperature for 5 minutes to collect 150 μL of the supernatant. Referring to the instructions in the Human TNF-α Duoset ELISA Kit, the level of TNF-α in the cell culture supernatant was detected.
Data on the inhibitory activity of cytokines (TNFα) against LPS-stimulated inflammatory responses in THP-1 cells are shown in Tables 3 and 4.

IRAK4 kinase = target: T1, IRAK4 kinase (Homo sapiens, UniProt Q9NWZ3); test: Compound inhibition of IRAK4 kinase activity (fluorescence microfluidic mobility shift assay); assay type: biochemical; details: 10 μM ATP, 6 nM IRAK4 kinase
T1 construct: purchased Carna 09-145
T1 sequence (Q9NWZ3 1-460): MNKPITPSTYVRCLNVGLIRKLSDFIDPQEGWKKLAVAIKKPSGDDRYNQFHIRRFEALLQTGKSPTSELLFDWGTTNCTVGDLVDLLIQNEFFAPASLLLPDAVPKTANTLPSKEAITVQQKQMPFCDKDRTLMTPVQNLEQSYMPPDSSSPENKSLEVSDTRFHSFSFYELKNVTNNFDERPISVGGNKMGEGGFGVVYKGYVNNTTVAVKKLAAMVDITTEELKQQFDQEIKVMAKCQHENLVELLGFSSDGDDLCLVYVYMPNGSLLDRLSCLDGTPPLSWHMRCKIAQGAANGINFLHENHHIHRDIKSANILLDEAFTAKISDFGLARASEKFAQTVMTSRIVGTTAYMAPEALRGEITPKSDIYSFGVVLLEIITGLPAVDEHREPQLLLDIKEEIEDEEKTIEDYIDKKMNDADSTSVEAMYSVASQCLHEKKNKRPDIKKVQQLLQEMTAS
Description: Based on the experimental method of fluorescence microfluidic mobility shift assay, the IC50 value of the compound for competitive binding of ATP to IRAK4 kinase was determined. The initial detection concentration of the compound was 10 μM, which was 4-fold serially diluted to 0.38 nM and assayed in duplicate. In this case, commercially available staurosporine was the standard control for the assay.
1) IRAK4 kinase was dissolved in kinase buffer (50 mM HEPES pH 7.5, 10 mM MgCl2, 2 mM DDT, and 0.01% Brij-35) at a final concentration of 6 nM.
2) The substrate peptide FAM-P8 and ATP were dissolved in the above kinase buffer, and the final concentrations of the substrate peptide FAM-P8 and ATP for IRAK4 were 3 μM and 10 μM, respectively.
3) Compound dilution: The compound was first diluted to 50 μM, and then 4-fold serially diluted with DMSO. In this case, the solution without compound and kinase served as the blank control, corresponding to the “minimum value” shown below; the solution without compound but containing kinase, adenosine 5′-triphosphate disodium salt hydrate, DMSO, and the buffer served as the positive control, corresponding to the “maximum value” shown below.
4) Kinase reaction and termination: 10 μL of the kinase buffer was added to a 384-well plate containing 5 μL of the compound to be tested, and the mixture was incubated at room temperature for 10 minutes; another 10 μL of buffer containing the substrate peptide and adenosine 5′-triphosphate disodium salt hydrate was added to the 384-well plate, and after incubation at 28° C. for 1 hour, 25 μL of termination solution (100 mM HEPES pH 7.5, 50 mM EDTA, 0.2% Coating Reagent #3, and 0.015% Brij-35) was added to each well to terminate the reaction.
5) Data reading: CaliperEZ Reader II instrument was used to read the conversion rate data. Setting conditions: downstream voltage as −500 V, upstream voltage as −2250 V, base pressure as −0.5 PSI, and screening pressure as −1.2 PSI.
6) Data calculation: the conversion rate data was copied from CaliperEZ Reader II, and the conversion rate was converted into inhibition rate data. The calculation formula is as follows: Inhibition percentage (%)=(maximum value−conversion rate)/(maximum value−minimum value)*100%
IC50 values were fitted with XLFit excel add-in version 5.4.0.8.

[1] = target: T2, IRAK4 protein in THP-1 cells (Homo sapiens, UniProt Q9NWZ3); test: IRAK4 protein degradation in THP-1 induced by PROTAC (Western Blot); assay type: cell-based; details: GAPDH internal reference
T2 construct: endogenous in cells; host or cells: THP-1
T2 sequence (Q9NWZ3 1-460): T1 sequence (Q9NWZ3 1-460)
Description: 3.1. Based on the experimental method of immunoblot, i.e., Western Blot, THP-1 cell samples processed by gel electrophoresis were stained with specific antibodies, and the degradation activity of the compounds on the IRAK4 protein in THP-1 cells was determined by analyzing the position of the staining and the depth of the staining. The detection concentrations of the compounds were 0 μM, 0.3 μM, 1 μM, and 3 μM, and the compounds were used to treat the cells for 8 hours, 16 hours, 24 hours, and 48 hours. In this case, glyceraldehyde-3-phosphate dehydrogenase (GAPDH) was the internal reference protein for the assay.
THP-1 cells were spread into a 6-well plate at a density of 1.5×10^6 cells per mL, and incubated in a 37° C. cell culture incubator with 5% CO2 for 2 hours. The compound was diluted with DMSO to 0.6 mM, 0.2 mM, and 0.06 mM, respectively. 10 μL of compound solution was added to the corresponding wells, and the plate was incubated in the incubator for 16 hours, 24 hours, and 48 hours, respectively. The drug-treated THP-1 cells were collected from the wells, added with 120 μL of RIPA lysis buffer containing protease inhibitor, phosphatase inhibitor cocktail 2, and phosphatase inhibitor cocktail 3, and lysed on wet ice for 30 minutes. The cell lysate was then centrifuged at low temperature and high speed for 5 minutes, and the supernatant was collected. Referring to the instructions in the Pierce™ BCA Protein Assay Kit, the cell samples were tested for protein concentration.
The samples were adjusted to the same concentration using lysis buffer and NuPAGE® LDS sample buffer containing 1 M DTT. The samples were heated at 95° C. for 5 minutes and centrifuged at low temperature and high speed. 20 μL of prepared protein sample and 4 μL of PageRuler Prestained Protein Ladder were added to the gel wells. The mixture was electrophoresed at a voltage of 80 V for 0.5 hours, and then electrophoresed for another 1.5 hours after the voltage was adjusted to 120 V. The gel was removed and proteins in the gel were transferred to IBlot™ 2 Transfer Stack at a voltage of 20V. After successful membrane transfer, the bands were cut out at 65 kDa to 40 kDa and 40 kDa to 30 kDa, respectively. The membrane was blocked with 5% non-fat milk at room temperature for 1 hour. The membrane was washed three times with 1×TBST, and incubated with IRAK4 antibody working solution at 4° C. overnight. The IRAK4 antibody working solution was discarded, and the membrane was washed three times with 1×TBST. After the corresponding membrane was incubated with Goat Anti-Rabbit IgG H&L (HRP) working solution and Goat Anti-Mouse IgG H&L (HRP) working solution at room temperature for 1 hour, the antibody working solutions were discarded, and the membrane was washed three times with 1×TBST. Referring to the instructions in the SuperSignal™ West Femto Maximum Sensitivity Substrate Kit, the reagents in the kit were mixed in equal volume proportions to prepare a luminescent mixture, and the membrane was incubated for 1 minute and removed for exposure.
WB assay: The results 24 hours after administration at 1 μM were divided into estimated <25%, <50%, <75%, and <100%.

IC50 (THP-1 cells; Homo sapiens, THP-1, Table 4)	Compound	IC50 (THP-1 cells; Homo sapiens, THP-1, Table 3)	IC50 (THP-1 cells; Table 4)	IC50 (IRAK4 kinase; Table 1)	IC50 (IRAK4 kinase; Table 2)	Western Blot results 24 hours after administration at a drug concentration of 1 μM ([1]; Table 5, estimated bins)	Western Blot results 24 hours after administration at a drug concentration of 1 μM ([1]; Table 6, estimated bins)
–	Cc1ncsc1-c1ccc([C@H](C)NC(=O)[C@@H]2C[C@@H](O)CN2C(=O)[C@@H](NC(=O)C2CC3(CCN(C(=O)CN4CCN(CCn5cc6cc(NC(=O)c7cccc(C(F)(F)F)n7)c(C(C)(C)O)cc6n5)C4=O)CC3)C2)C(C)(C)C)cc1 [III-16]	1000 to 10000 nM	1000 to 10000 nM	100 to 1000 nM	100 to 1000 nM	<50%	–
1000 to 10000 nM	CC(C)(O)c1cc2nn(CCN3CCN(CC(=O)N4CCC5(CC4)CN(c4cccc6c4C(=O)N(C4CCC(=O)NC4=O)C6=O)C5)C3=O)cc2cc1NC(=O)c1cccc(C(F)(F)F)n1 (stereo not drawn) [III-5]	–	–	100 to 1000 nM	100 to 1000 nM	–	<25%
–	Cc1ncsc1-c1ccc([C@H](C)NC(=O)[C@@H]2C[C@@H](O)CN2C(=O)[C@@H](NC(=O)C2CCC3(CC2)CCN(C(=O)CN2CCN(CCn4cc5cc(NC(=O)c6cccc(C(F)(F)F)n6)c(C(C)(C)O)cc5n4)C2=O)CC3)C(C)(C)C)cc1 [III-17]	1000 to 10000 nM	1000 to 10000 nM	100 to 1000 nM	100 to 1000 nM	<25%	<25%
